Legend:
Assay in all cases: relative viability (nuclei count vs DMSO), 5 days (fraction); higher = more cells survive
QS11 + Luminespib = compound: C1CC2=C(C1)C=C(C=C2)OC3=NC(=C4C(=N3)N(C=N4)CC5=CC=C(C=C5)C6=CC=CC=C6)N[C@@H](CC7=CC=CC=C7)CO [QS11] + CCNC(=O)c1noc(-c2cc(C(C)C)c(O)cc2O)c1-c1ccc(CN2CCOCC2)cc1 [Luminespib] (partner 0.01 µM)
How it was run: (§1)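 One day after seeding in 1536-well plates, lung cancer cell lines were dosed by pin tool. Dosing was either single-drug or a fixed anchor-drug dose plus five library-drug doses (not always all listed) in √10 steps. After 5 days, nuclei were stained in one fix-and-stain step and counted on 4× images, and relative viability is the nuclei count of treated wells over that of vehicle wells, given as the median of duplicate plates.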

AZ628 + Vorinostat = compound: CC1=C(C=C(C=C1)NC(=O)C2=CC(=CC=C2)C(C)(C)C#N)NC3=CC4=C(C=C3)N=CN(C4=O)C [AZ628] + O=C(CCCCCCC(=O)Nc1ccccc1)NO [Vorinostat] (partner 1 µM)
How it was run: as §1

[1] = compound: C[As](C)SC[C@H](NC(=O)CC[C@H](N)C(=O)O)C(=O)NCC(=O)O [Darinaparsin] + CS(=O)(=O)N1CCN(Cc2cc3nc(-c4cccc5[nH]ncc45)nc(N4CCOCC4)c3s2)CC1 [Pictilisib] (partner 1 µM)
How it was run: as §1

[2] = compound: C[As](C)SC[C@H](NC(=O)CC[C@H](N)C(=O)O)C(=O)NCC(=O)O [Darinaparsin] + O=C(CCCCCCC(=O)Nc1ccccc1)NO [Vorinostat] (partner 1 µM)
How it was run: as §1

Cell Line	relative viability (QS11 + Luminespib; first compound 0.08 µM)	relative viability (QS11 + Luminespib; first compound 0.253 µM)	relative viability (QS11 + Luminespib; first compound 2.53 µM)	relative viability (QS11 + Luminespib; first compound 8 µM)	relative viability (AZ628 + Vorinostat; first compound 0.08 µM)	relative viability (AZ628 + Vorinostat; first compound 0.253 µM)	relative viability (AZ628 + Vorinostat; first compound 0.8 µM)	relative viability (AZ628 + Vorinostat; first compound 2.53 µM)	relative viability (AZ628 + Vorinostat; first compound 8 µM)	relative viability ([1]; first compound 0.08 µM)	relative viability ([1]; first compound 0.8 µM)	relative viability ([1]; first compound 2.53 µM)	relative viability ([1]; first compound 8 µM)	relative viability ([2]; first compound 0.08 µM)	relative viability ([2]; first compound 0.8 µM)	relative viability ([2]; first compound 2.53 µM)	relative viability ([2]; first compound 8 µM)	relative viability (QS11 + Luminespib; first compound 0.8 µM)
NCI-H1944	0.702	0.864	0.557	0.543	0.613	0.547	0.508	0.468	0.444	0.359	0.307	0.348	0.374	0.595	0.542	0.61	0.682	–
NCI-H322M	0.823	0.863	0.99	1.24	1.03	0.856	0.989	0.937	0.816	0.58	0.495	0.469	0.59	1.08	0.865	0.768	0.899	0.911
LCLC-103H	0.661	1.17	0.915	1.02	0.727	0.804	0.776	0.712	0.728	0.52	0.566	0.593	0.604	0.796	0.713	0.732	0.885	0.747
SK-MES-1	0.553	0.927	0.883	0.823	1.07	1.18	1.04	1.1	0.572	0.354	0.353	0.336	0.401	1.11	1.07	0.924	1.43	0.685
A-427	0.918	0.885	1.02	1.05	1.02	0.811	0.82	0.787	0.437	0.893	0.761	0.757	0.856	0.898	0.811	0.951	0.893	–
NCI-H1355	0.743	0.696	0.727	0.703	0.69	0.623	0.581	0.598	0.418	0.445	0.37	0.451	0.456	0.703	0.617	0.488	0.683	0.602
NCI-H2170	0.603	0.646	0.806	0.665	0.804	0.833	0.786	0.837	0.905	0.305	0.279	0.316	0.297	0.967	0.694	0.676	1.17	0.766
NCI-H1793	0.137	0.177	0.189	0.158	0.969	0.632	0.835	0.602	0.484	0.25	0.31	0.355	0.299	0.653	0.731	–	0.911	0.171
NCI-H2023	0.789	0.916	0.624	0.814	0.825	0.61	0.542	0.636	0.405	0.284	0.193	0.217	0.262	0.662	0.554	0.707	0.666	0.554
NCI-H520	0.25	0.369	0.231	0.209	0.684	0.628	0.702	0.81	0.716	0.287	0.339	0.241	0.277	0.737	0.723	0.735	0.785	0.228
NCI-H2087	0.136	0.186	0.158	0.172	1.02	0.723	0.743	0.527	0.148	1.06	0.881	0.652	0.997	0.932	0.839	0.892	1.14	–
NCI-H596	0.87	1.09	0.829	0.934	0.559	0.594	0.69	0.686	0.682	0.396	0.397	0.416	0.378	0.543	0.632	0.576	0.543	0.919
NCI-H2009	1.01	1.15	0.905	0.935	0.595	0.783	0.568	0.612	0.405	0.94	0.759	0.815	0.711	0.866	0.717	0.645	0.72	0.823
NCI-H1993	0.831	0.74	0.77	0.68	0.751	0.774	0.812	0.62	0.547	0.885	0.783	0.695	0.848	0.765	0.855	0.697	0.827	0.739
COR-L23	0.718	0.683	0.552	0.576	0.528	0.426	0.491	0.473	0.321	1.06	0.706	0.41	0.932	0.453	0.523	0.425	0.433	0.673
HOP-62	0.816	1.03	0.942	0.934	0.641	0.701	0.641	0.432	0.289	0.99	0.588	0.774	1.04	0.765	0.654	0.522	0.819	0.828
NCI-H1437	1.15	1.2	1.05	0.947	0.834	0.765	0.752	0.829	0.776	0.468	0.409	0.395	0.391	0.907	0.854	0.911	1.06	1.11
NCI-H1755	0.403	0.406	0.422	0.412	0.78	0.779	0.84	0.755	0.679	0.461	0.398	0.355	0.38	0.791	0.606	0.817	1.05	0.289

Cell Line	relative viability (QS11 + Luminespib; first compound 0.08 µM)	relative viability (QS11 + Luminespib; first compound 0.253 µM)	relative viability (QS11 + Luminespib; first compound 2.53 µM)	relative viability (QS11 + Luminespib; first compound 8 µM)	relative viability (AZ628 + Vorinostat; first compound 0.08 µM)	relative viability (AZ628 + Vorinostat; first compound 0.253 µM)	relative viability (AZ628 + Vorinostat; first compound 0.8 µM)	relative viability (AZ628 + Vorinostat; first compound 2.53 µM)	relative viability (AZ628 + Vorinostat; first compound 8 µM)	relative viability ([1]; first compound 0.08 µM)	relative viability ([1]; first compound 0.8 µM)	relative viability ([1]; first compound 2.53 µM)	relative viability ([1]; first compound 8 µM)	relative viability ([2]; first compound 0.08 µM)	relative viability ([2]; first compound 0.8 µM)	relative viability ([2]; first compound 2.53 µM)	relative viability ([2]; first compound 8 µM)	relative viability (QS11 + Luminespib; first compound 0.8 µM)
NCI-H3122	0.114	0.148	0.114	0.109	0.932	0.921	0.737	0.768	0.496	0.711	0.583	0.636	0.707	1.18	1.22	0.927	1.36	–
ChaGo-K-1	0.506	0.609	0.664	0.655	0.773	0.75	0.753	0.754	0.743	0.947	0.693	0.732	0.662	0.848	0.788	0.754	0.769	0.679
SW 1573	0.239	0.239	0.21	0.235	1.01	0.641	0.592	0.575	0.508	0.621	0.545	0.49	0.495	0.837	0.754	0.653	0.738	0.198
NCI-H2085	0.376	0.474	0.403	0.546	0.845	0.788	0.891	0.826	0.736	0.553	0.419	0.455	0.44	0.73	0.732	0.827	0.764	0.286
NCI-H727	0.876	0.391	0.321	0.341	1.25	–	–	0.891	0.352	0.405	0.425	0.297	0.465	1.24	1.14	1.16	1.36	0.341
NCI-H2405	0.516	0.756	0.835	0.89	0.884	0.8	0.69	0.707	0.586	0.5	0.443	0.422	0.537	1.07	1.02	0.924	1.12	0.646
NCI-H1666	1.01	1.1	0.728	0.519	1.07	0.953	0.995	0.764	0.916	0.418	0.458	0.454	0.53	1.2	0.899	1.18	1.08	0.702
BEN	0.241	0.567	0.507	0.31	0.615	0.513	0.571	0.557	0.589	0.709	0.636	0.498	0.659	0.572	0.602	0.688	0.65	0.366
NCI-H1650	0.193	0.209	0.192	0.216	0.733	0.763	0.582	0.505	0.562	0.666	0.503	0.623	0.59	0.64	0.499	0.628	0.683	0.201
HARA	0.675	0.747	0.845	1.19	0.706	0.453	0.405	0.399	0.183	0.393	0.371	0.324	0.413	0.582	0.532	0.575	0.621	–
RERF-LC-KJ	1.5	1.35	1.22	1.11	0.779	0.735	0.741	0.677	0.656	0.576	0.571	0.522	0.44	0.686	0.742	0.563	0.723	1.04
NCI-H1975	0.199	0.33	0.281	0.2	0.62	0.668	0.679	0.658	0.42	0.289	0.299	0.289	0.28	0.875	0.728	0.741	0.854	0.275
EPLC-272H	–	0.269	0.385	0.284	0.557	0.518	0.4	0.332	0.274	0.295	0.332	0.266	0.311	0.324	0.42	0.422	0.4	0.311
HCC-15	0.334	0.311	0.341	0.389	0.867	0.728	0.693	0.61	0.348	0.879	0.71	0.72	0.92	0.911	0.839	0.851	0.901	0.332
COR-L 105	0.838	0.7	0.776	0.664	0.881	0.886	0.796	0.794	0.654	0.446	0.411	–	0.429	0.908	0.656	0.822	0.932	0.649
NCI-H1915	0.952	0.959	0.766	0.447	0.549	0.606	0.537	0.461	0.462	0.99	0.902	0.955	0.991	0.502	0.468	0.485	0.579	–
NCI-H2347	0.367	0.571	0.352	0.886	0.46	0.642	0.447	0.439	0.335	0.708	0.636	0.694	0.783	0.477	0.541	0.679	0.718	0.505
EKVX	0.907	0.732	0.848	1.03	0.952	0.698	0.848	0.579	0.53	0.508	0.404	0.452	0.488	0.787	0.653	0.764	0.737	–
